Assay results reported in US7097965B2 (priority 1996, dated 2006).

Tested on: mouse mastocytoma cells
Format: cell-based

## CC(=O)N[C@@H](CSC(=O)[C@]1([C@@H](O)C(C)C)NC(=O)[C@H](C)[C@@H]1O)C(=O)O [lactacystin]
  lysis of the target cells by CTLs: significantly decreased lysis
